From patent US20220211614A1, “COMPOSITIONS AND IMPLANTABLE DEVICES” (Commonwealth Scientific and Industrial Research Organisation, priority 2019, published 2022)
Blank lines part the entries; values can stand above or below the compound they belong to. No end group written: not given here.

Key:
[1] = target: T1, relaxin family peptide receptor 1 (RXFP1) (Homo sapiens, UniProt Q9HBX9); experiment: HEK-RXFP1 cAMP reporter gene assay; type: cell-based
T1 construct: expressed in transfected cells; host or cells: HEK (human embryonic kidney) cells stably expressing RXFP1, with pCRE beta-galactosidase reporter
T1 sequence (Q9HBX9 1-757): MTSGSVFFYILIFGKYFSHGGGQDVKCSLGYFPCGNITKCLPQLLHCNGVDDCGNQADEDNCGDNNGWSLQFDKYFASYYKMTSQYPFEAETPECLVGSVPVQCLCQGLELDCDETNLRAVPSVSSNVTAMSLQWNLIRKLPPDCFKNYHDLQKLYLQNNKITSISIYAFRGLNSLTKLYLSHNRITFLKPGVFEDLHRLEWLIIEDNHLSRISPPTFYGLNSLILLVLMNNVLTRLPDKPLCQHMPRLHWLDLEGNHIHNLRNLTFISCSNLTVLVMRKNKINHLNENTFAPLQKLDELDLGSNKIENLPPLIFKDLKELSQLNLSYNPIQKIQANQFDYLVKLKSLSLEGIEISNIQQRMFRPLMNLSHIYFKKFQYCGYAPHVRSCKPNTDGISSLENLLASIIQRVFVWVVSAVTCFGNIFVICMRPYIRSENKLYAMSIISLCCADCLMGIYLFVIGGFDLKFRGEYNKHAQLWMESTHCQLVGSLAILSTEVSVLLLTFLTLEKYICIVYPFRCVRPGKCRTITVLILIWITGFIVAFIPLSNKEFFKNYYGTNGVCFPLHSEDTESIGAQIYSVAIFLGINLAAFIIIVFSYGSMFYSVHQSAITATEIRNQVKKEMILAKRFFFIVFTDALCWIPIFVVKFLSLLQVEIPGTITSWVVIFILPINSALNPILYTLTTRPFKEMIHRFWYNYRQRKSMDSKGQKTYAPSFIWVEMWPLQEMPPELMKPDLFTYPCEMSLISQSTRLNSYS
Protocol: HEK-RXFP1 cAMP Reporter Gene Assay
B7-33 activity at RXFP1 was assessed using a cAMP reporter gene assay as previously described (Scott et al. J. Biol. Chem. 2006, 281:34942-3495) with slight modification. PLGA B7-33 well plate coatings, and peptide controls in the absence of PLGA (dried peptide), were compared to solubilized B7-33 solution standards ([…]) and H2 relaxin (10 nM). Wells were seeded (25,000 cells per well, 100 μL) with dispersed HEK-RXFP1-pCRE reporter cells and incubated for 6 hours. Cells were then lysed and the reporter gene stimulated β-galactosidase activity was measured using a colorimetric substrate to evaluate the relative cAMP responses. Ligand-induced cAMP stimulation was expressed as a % of maximal response to H2 relaxin. Each data point was measured in triplicate and each experiment conducted independently at least three separate times.

[2] = cited from earlier work
[3] = target: relaxin family peptide receptor 1 (RXFP1), stably expressed on human embryonic kidney cells (HEK-RXFP1) (UniProt Q9HBX9); experiment: cell-based or functional assay

EC50 ([1]; cAMP reporter gene (β-galactosidase), HEK-RXFP1 cells, 6 hours incubation): 1000 nM
Compound: VIKLSGRELVRAQIAISGMSTWSKRSL-NH2 [B7-33]
retained activity against the RXFP1 receptor after drying/oxidation ([1]; HEK-RXFP1 cell assay (FIG. 2), oxidized species of B7-33 observed by MALDI): retains activity against the RXFP1 receptor

Compound: recombinant human relaxin 2
in vivo half-life [2]: 40 min

Compound: CC(C)Oc1ccccc1C(=O)Nc1ccccc1C(=O)Nc1cccc(S(=O)(=O)C(F)(F)F)c1 [ML290]
in vivo half-life [2]: approximately 8 hours

EC50, cAMP reporter gene assay (beta-galactosidase, colorimetric) in HEK-RXFP1 cells; B7-33 peptide solution control [3]: 1000 nM
EC50, cAMP reporter gene assay (beta-galactosidase, colorimetric) in HEK-RXFP1 cells; PLGA-free dried peptide control [3]: 1000 nM
Compound: B7-33 peptide (single B chain peptide analogue of H2 relaxin)
